Results on 8 compounds are retold here after PMC5484149 (Journal of Medicinal Chemistry, 2017).

For orientation: clearance means the rate of elimination divided by the concentration. One may read the Tmax as the time at which the peak concentration occurs. By half-life is commonly meant the time in which the quantity being followed falls by half.

Series [1] can be described thus: Rat IV PK. The conditions noted are these: male, Sprague-Dawley, plasma, 1 mg/kg. It counts as in vivo.
Series [2] in a line: Stability in rat plasma. It counts as in vitro ADME.
The nature of series [3]: Cynomolgus monkey oral PK. The conditions noted are these: male, plasma, 5 mg/kg. It counts as in vivo.
Series [4] is described as follows: Stability in human cryopreserved hepatocytes.
The test system of series [5] is WP2 uvrA. Nature of the series: Bacterial reverse mutation assay. It counts as cell-based, Escherichia coli. The conditions noted are these: with and without S9 metabolic activation; 0.05 to 5.0 mg/plate.
Series [6] relates to TA1537. Briefly: Bacterial reverse mutation assay. To be noted: with and without S9 metabolic activation; 0.05 to 5.0 mg/plate. It counts as cell-based, Salmonella typhimurium.
Series [7] has as its system TA98. Nature of the series: Bacterial reverse mutation assay. It counts as cell-based, Salmonella typhimurium. To be noted: with and without S9 metabolic activation; 0.05 to 5.0 mg/plate.
For series [8], the system named is TA100. Briefly: Bacterial reverse mutation assay. To be noted: with and without S9 metabolic activation; 0.05 to 5.0 mg/plate. It counts as cell-based, Salmonella typhimurium.
The subject of series [9] is aldehyde oxidase (AO). Nature of the series: Metabolism in hepatic S9 fractions. It counts as in vitro ADME. The conditions noted are these: rat, cynomolgus monkey and human hepatic S9 fractions.
Series [10] relates to TA135. Briefly: Bacterial reverse mutation assay. It counts as cell-based, Salmonella typhimurium. To be noted: with and without S9 metabolic activation; 0.05 to 5.0 mg/plate.
For series [11] the following is noted: rats; cited from earlier work.

Structures are written as SMILES.

With `Cc1cc(Oc2cnc(C)nc2)cc(C(=O)Nc2ccc(F)cn2)n1` [compound 33, N-(5-Fluoropyridin-2-yl)-6-methyl-4-((2-methylpyrimidin-5-yl)oxy)picolinamide], the clearance at 24 h in series [1] was 6.2 mL/min/kg.

Take `Cc1cccc(NC(=O)c2cc(Oc3cncc(F)c3)cc(C)n2)n1` [compound 22, 4-((5-Fluoropyridin-3-yl)oxy)-6-methyl-N-(6-methylpyridin-2-yl)picolinamide]: the clearance at 24 h in series [1] worked out at 32.5 mL/min/kg.

`Cc1cc(Oc2cncc(F)c2)cc(C(=O)Nc2cccc(F)n2)n1` [compound 26, N-(6-Fluoropyridin-2-yl)-4-((5-fluoropyridin-3-yl)oxy)-6-methylpicolinamide]: the “stability in rat plasma” value in series [2] is reported as “instability”. Besides, the clearance at 24 h in [1] was found to be 96 mL/min/kg.

With `Cc1cc(Oc2cncc(F)c2)cc(C(=O)Nc2ccc(F)cn2)n1` [compound 28, N-(5-Fluoropyridin-2-yl)-4-((5-fluoropyridin-3-yl)oxy)-6-methylpicolinamide], in series [3], the Tmax is 2 h. This compound also displayed a clearance at 24 h in [1] of 9.2 mL/min/kg.

Regarding `CCc1cccc(NC(=O)c2cc(Oc3cncnc3)cc(C)n2)n1` [compound 23, N-(6-Ethylpyridin-2-yl)-6-methyl-4-(pyrimidin-5-yloxy)picolinamide], the clearance at 24 h in series [1] worked out at 43.7 mL/min/kg.

Regarding `Cc1cccc(NC(=O)c2cc(Oc3cncnc3)cc(C)n2)n1` [compound 21, 6-Methyl-N-(6-methylpyridin-2-yl)-4-(pyrimidin-5-yloxy)picolinamide], the clearance at 24 h in series [1] came to 34.2 mL/min/kg.

In the case of `Cc1cc(Oc2cncnc2)cc(C(=O)Nc2ccc(F)cn2)n1` [compound 27, N-(5-Fluoropyridin-2-yl)-6-methyl-4-(pyrimidin-5-yloxy)picolinamide], the Tmax in series [3] was 3 h. Also, the half-life at 5 µM in series [4] (both, cryopreserved hepatocytes (pooled, 19 donors)) was above 5 h. Also, the “predicted hepatic clearance (CLHEP)” value in series [4] (predicted from hepatocytes) is on record as 3.59 mL/min/kg. This compound had a clearance at 24 h in [1] of 19.3 mL/min/kg. Moreover, the “bacterial reverse mutation assay WP2 uvrA” value in [5] was “negative”. Moreover, the “bacterial reverse mutation assay TA1537” value in [6] was “negative”. In addition, the “bacterial reverse mutation assay TA98” value in series [7] is “negative”. For the same compound, the “bacterial reverse mutation assay TA100” value in [8] was “negative”. Further, the “contribution of AO to metabolism” value in [9] was “AO contributed significantly to the metabolism”. Moreover, the “bacterial reverse mutation assay TA135” value in series [10] is “negative”.

Consider `Cc1csc(NC(=O)c2cc(F)cc(Oc3cncnc3)c2)n1` [compound 9], for which the Clp in [11] was 43 mL/min/kg.
